Here are results for two molecules from ChEMBL document CHEMBL6127143, “From Virtual Screens to Cellular Target Engagement: New Small Molecule Ligands for the Immune Checkpoint LAG-3” (ACS Med Chem Lett, 2024).

In the data set the test system is Raji. The data set is described as follows: Cytotoxicity against human Raji cells expressing human LAG3 assessed as reduction in cell viability incubated for 1 hrs by trypan blue staining based analysis. It counts as toxicity.

Molecules are shown by their SMILES.

As to `O=C(O)c1cccc(C(=O)NC2CCN(c3ccc(C(F)(F)F)cn3)CC2)c1`, the Activity entry is listed as “Non-Toxic”. Next, `Cc1nc(C(F)(F)F)nc(-c2cc(NCCN(C)C)nc3[nH]ccc23)c1C`: “Non-Toxic”.
